We go through 29 compounds from US6638967B2, “Thiophene of furan pyrrolidine compounds” (Ortho-McNeil Phamraceutical, Inc., priority 2000, dated 2003).

The target of this assay is T1, human histamine H3 receptor (Homo sapiens, UniProt Q9Y5N1).
T1 construct: One microgram of supercoiled H3 receptor cDNA was added to the cells and mixed; expressed in transfected cells
Put plainly: [3H]-N-methylhistamine binding. Conditions: membranes of histamine H3 receptor-expressing SK-N-MC cells, 0.8 nM [3H]-N-methylhistamine, 45 min at 25° C. The procedure: Thus in the present invention receptor binding was determined using the human histamine H3 receptor (See Lovenberg et al Mol. Pharmacol. 1999, 1107). Screening using the human receptor is particularly important for the identification of new therapies for the treatment of human disease. Conventional binding assays for example are determined using rat synaptosomes (Garbarg et al J. Pharmacol. Exp. Ther. 1992, 263, 304), rat cortical membranes (West et al Mol. Pharmacol. 1990, 610), and guinea pig brain (Korte et al Biochem. Biophys. Res. Commun. 1990, 978). Only limited studies have been performed previously using human tissue but these allude to significant differences in the pharmacology of rodent and primate receptors (West et al Eur. J. Pharmacol. 1999, 233).
Transfection of Cells With Human Histamine Receptor
A 10 cm tissue culture dish with a confluent monolayer of SK-N-MC cells was split two days prior to transfection. Using sterile technique the media was removed and the cells were detached from the dish by the addition of trypsin. One fifth of the cells were then placed onto a new 10 cm dish. Cells were grown in a 37° C. incubator with 5% CO2 in Minimal Essential Media Eagle with 10% Fetal Bovine Serum. After two days cells were approximately 80% confluent. These were removed from the dish with trypsin and pelleted in a clinical centrifuge. The pellet was then re-suspended in 400 μL complete media and transferred to an electroporation cuvette with a 0.4 cm gap between the electrodes (Bio-Rad #165-2088). One microgram of supercoiled H3 receptor cDNA was added to the cells and mixed. The voltage for the electroporation was set at 0.25 kV; the capacitance was set at 960 μF. After electroporation the cells were diluted into 10 mL complete media and plated onto four 10 cm dishes. Because of the variability in the efficiency of electroporation, four different concentrations of cells were plated. The ratios used were; 1:20, 1:10, 1:5, with the remainder of the cells being added to the fourth dish. The cells were allowed to recover for 24 hours before adding the selection media (complete media with 600 μg/mL G418). After 10 days dishes were analyzed for surviving colonies of cells. Dishes with well isolated colonies were used. Cells from individual colonies were isolated and tested. SK-N-MC cells were used because they give efficient coupling for inhibition of adenylate cyclase. The clones that gave the most robust inhibition of adenylate cyclase in response to histamine were used for further study.
[^3H]-N-methylhistamine binding
Cell pellets from histamine H3 receptor-expressing SK-N-MC cells were homogenized in 20 mM TrisHCI/0.5 mM EDTA. Supernatants from a 800 g spin were collected, recentrifuged at 30,000 g for 30 minutes. Pellets were re-homogenized in 50 mM Tris/5 mM EDTA (pH 7.4). Membranes were incubated with 0.8 nM [^3H]-N-methylhistamine plus/minus test compounds for 45 min at 25° C. and harvested by rapid filtration over GF/C glass fiber filters (pretreated with 0.3 % polyethylenimine) followed by four washes with ice cold buffer. Filters were dried, added to 4 mL scintillation cocktail and then counted on a liquid scintillation counter. Non-specific binding was defined with 10 μM histamine. The pKi values were calculated based on a Kd of 800 pM and a ligand concentration ([L]) of 800 pM according to the formula: […]

The Ki is a measure of affinity in units of concentration, obtained from inhibition or displacement. A low value points to tighter binding.

Counter-ions that a name gives are not always drawn.

T1 sequence (Q9Y5N1 whole entry): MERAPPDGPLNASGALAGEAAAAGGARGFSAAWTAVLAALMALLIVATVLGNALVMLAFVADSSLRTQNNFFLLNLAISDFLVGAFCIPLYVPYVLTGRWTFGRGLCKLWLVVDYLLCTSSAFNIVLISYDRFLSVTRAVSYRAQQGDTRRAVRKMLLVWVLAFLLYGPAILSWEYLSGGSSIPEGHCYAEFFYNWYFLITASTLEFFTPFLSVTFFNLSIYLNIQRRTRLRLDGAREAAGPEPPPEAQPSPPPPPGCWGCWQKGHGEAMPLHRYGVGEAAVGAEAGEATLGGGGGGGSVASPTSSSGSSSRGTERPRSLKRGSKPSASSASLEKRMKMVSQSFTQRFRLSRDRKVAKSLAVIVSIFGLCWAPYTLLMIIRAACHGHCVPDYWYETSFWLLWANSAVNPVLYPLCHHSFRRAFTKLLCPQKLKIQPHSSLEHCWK

In turn, `CN(C)CCCOc1ccc(C(=O)c2ccc(O)cc2)cc1` [Example 33, [4-(3-Dimethylamino-propoxy)-phenyl]-(4-hydroxy-phenyl)-methanone] came in with a Ki of 129 nM.

Consider `c1cc(-c2ccc(CN3CCCC3)s2)ccc1CN1CCCC1` [Example 1], for which the affinity corresponds to a Ki of 9 nM.

In the case of `CN(C)CCCSc1ccc(C(=O)c2ccc(SCCCN(C)C)cc2)cc1` [Example 32, Bis-[4-(3-dimethylamino-propylsulfanyl)-phenyl]methanone dihydrochloride], the affinity corresponds to a Ki of 14 nM.

`c1cn(Cc2ccc(Oc3ccc(Cn4ccnc4)cc3)cc2)cn1` [Example 10] had a Ki of 151 nM.

For `c1cc(Oc2ccc(CN3CCCCC3)cc2)ccc1CN1CCCCC1` [Example 7], the Ki was 0.66 nM.

With `c1cc(N(CCCN2CCCCC2)c2ccc(CN3CCCC3)cc2)ccc1CN1CCCC1` [Example 24, (3Piperidin-1-yl-propyl)-bis-(4pyrrolidin1-ylmethyl-phenyl)-amine], affinity was put at a Ki of 3.5 nM.

The compound `Cn1ccnc1SCc1ccc(Oc2ccc(CSc3nccn3C)cc2)cc1` [Example 16, 2-[4-(4-(1Methyl-imidazo)-2-ylthiomethyl-phenoxy-)-benzyl-thio]-1-methyl-imidazole] had a Ki of 792 nM.

Compound `CN(C)CCN(c1ccc(CN2CCCC2)cc1)c1ccc(CN2CCCC2)cc1` [Example 25] had a Ki of 453 nM.

`c1cc(Oc2ccc(CSC3=NCCS3)cc2)ccc1CSC1=NCCS1` [Example 15, 2-[4-(4-(2Thiazolin)-2-ylthiomethyl-phenoxy-)-benzyl-thio]-2-thiazoline] came in with an inhibition constant Ki of 2570 nM.

As for `ON=Cc1ccc(-c2ccc(CN3CCCC3)cc2)cc1` [Example 28, 4′-Pyrrolidin-1-ylmethyl-biphenyl-4-carbaldehyde oxime], the affinity corresponds to a Ki of 6.5 nM.

The compound `C/N=C(\NC)SCc1ccc(Oc2ccc(CS/C(=N/C)NC)cc2)cc1` [Example 12] displayed a Ki of 85 nM.

With `c1cc(Oc2ccc(CNC3=NCCN3)cc2)ccc1CNC1=NCCN1` [Example 17, 2-[4-(4-(2Imidazolin)-2-ylaminomethyl-phenoxy-)-benzyl-amino]-2-imidazolidone], the Ki came to 344 nM.

Regarding `c1cc(Oc2ccc(CN3CCCC3)cc2)ccc1CN1CCCC1` [Example 6], the affinity, expressed as Ki, was 0.5 nM.

In turn, `c1cc(-c2ccc(CN3CCCC3)o2)ccc1CN1CCCC1` [Example 2] displayed a Ki of 0.41 nM.

In the case of `c1cc(-c2ccc(CN3CCCC3)cc2)c(CN2CCCC2)s1` [Example 5, 1-[(3-(4-Pyrrolidin-1-ylmethyl-phenyl)-thiophen)-2-ylmethyl]-pyrrolidine], the Ki turned out to be 63 nM.

`CNC(=N)SCc1ccc(Oc2ccc(CSC(=N)NC)cc2)cc1` [Example 13] had a Ki of 629 nM.

On to `c1cn(Cc2ccc(Cc3ccc(Cn4ccnc4)cc3)cc2)cn1` [Example 11], for which the Ki was 150 nM.

As to `c1cc(CN2CCCC2)c(-c2ccc(CN3CCCC3)cc2)s1` [Example 4, 1-[(2-(4-Pyrrolidin-1-ylmethyl-phenyl)-thiophen)-3-ylmethyl]-pyrrolidine], the Ki was found to be 9 nM.

Regarding `c1cc(Cn2ccc(CN3CCCC3)c2)ccc1CN1CCCC1` [Example 30], affinity was put at a Ki of 24.2 nM.

`CN(C)CCOc1ccc(C(=O)c2ccc(OCCN(C)C)cc2)cc1` [Example 34, Bis-[4-(2-dimethylamino-ethoxy)-phenyl]-methanone] gave a Ki of 126 nM.

`c1cc(CN2CCCC2)n(Cc2ccc(CN3CCCC3)cc2)c1` [Example 31] gave an inhibition constant Ki of 3.2 nM.

`c1cc(CN2CCCC2)ccc1Cc1ccc(CN2CCCC2)cc1` [Example 9] yielded a Ki of 2 nM.

As to `c1cc(CCN2CCCC2)ccc1CCc1ccc(CCN2CCCC2)cc1` [Example 29, 1-(2-{4-[2-(1-Phenethyl-pyrrolidine)-ethyl]-phenyl}-ethyl)-pyrrolidine], the affinity corresponds to a Ki of 26.6 nM.

Compound `O=S(=O)(c1ccc(CN2CCCC2)cc1)c1ccc(CN2CCCC2)cc1` [Example 8] returned a Ki of 2.5 nM.

With `O=Cc1ccc(-c2ccc(CN3CCCC3)cc2)cc1` [Example 27, 4′-Pyrrolidin-1-ylmethyl-biphenyl-4-carbaldehyde], the Ki is 8.7 nM.

In turn, `c1cc(-c2ccc(CN3CCCC3)s2)sc1CN1CCCC1` [Example 3] displayed a Ki of 1.4 nM.

In turn, `c1ccc(CN(c2ccc(CN3CCCC3)cc2)c2ccc(CN3CCCC3)cc2)cc1` [Example 23, Benzyl-bis-(4pyrrolidin1-ylmethyl-phenyl)-amine] returned a Ki of 15 nM.

Regarding `O=[N+]([O-])c1cc(CN2CCCCC2)ccc1Sc1ccc(N2CCCCC2)cc1` [Example 26, 1-[4-(4-Piperidine-phenylsulfanyl)-3-nitro-benzyl]-piperidine], the affinity, expressed as Ki, was 756 nM.

The compound `c1ccn(Cc2ccc(COc3ccc(CN4CCCC4)cc3)cc2)c1` [Example 20, 1-[4-(4Pyrrolidin1-ylmethyl-phenoxymethyl)-benzyl]-1H-pyrrole] had a Ki of 16 nM.
